Experiments:
[1] = target: T1, Aiolos (Homo sapiens, UniProt Q96SW2+Q9UKT9); experiment: Aiolos degradation in human PBMCs, flow cytometry (IMiD activity); format: cell-based; conditions: 24 hours; for DC50: Aiolos degradation; for Dmax: read-out: Dmax (maximum percent Aiolos degradation)
T1 construct: endogenous in cells; host or cells: human PBMCs (CD20+CD3- B cells, CD3+CD20- T cells)
Method: Frozen human peripheral blood mononuclear cells (PBMCs) were thawed and treated with DMSO or compound for 24 hours and then fixed and permeabilized using a Foxp3/Transcription Factor Fixation/Permeabilization Kit (eBioscience, 00-5523). Cells were stained with fluorophore-conjugated antibodies against CD20 (Biolegend 302330), CD3 (BD Pharmingen 552127), and Aiolos (Biolegend 371106). An additional set of DMSO-treated PBMCs was stained for CD20, CD3, and an AlexaFluor 647-conjugated mouse IgG1 isotype control antibody (Biolegend 400136). Stained cells were run on an Attune NxT Acoustic Focusing Flow Cytometer (Thermo-Fisher A29004), and data was analyzed using FlowJo (v10.5.3) and GraphPad Prism (v7.00) software. Single lymphocytes were gated for B cells (CD20+CD3−) and T cells (CD3+CD20−), and the geometric mean fluorescence intensity (MFI) of Aiolos was calculated for each population. The MFI of the isotype control was calculated for each population and used to quantify background staining. Percent Aiolos degradation was calculated for each compound-treated sample using the following equation: […]
DC50 is the compound concentration degrading […] of Aiolos. Dmax is the maximum percent Aiolos degradation in the assay.

[2] = test system: arthritis; experiment: Arthritis model, clinical arthritis score and body weight; format: in vivo, mice; conditions: daily oral treatment at 30 mg/kg, compared to dexamethasone and vehicle
Method: Significance of clinical arthritis score (A) was determined from the area under the curve (AUC) of mean paw scores calculated for individual mice. (C) Serum levels of anti-type II collagen IgG. Statistical significance was determined between vehicle control and treated groups with one-way Kruskal-Wallis ANOVA and Dunn's multiple comparisons test.

[3] = target: T2, BTK (Homo sapiens, UniProt Q06187); experiment: BTK degradation and anti-tumor activity in preclinical models; format: in vivo
T2 construct: host or cells: preclinical models (not described)
T2 sequence (Q06187 whole entry, species assumed): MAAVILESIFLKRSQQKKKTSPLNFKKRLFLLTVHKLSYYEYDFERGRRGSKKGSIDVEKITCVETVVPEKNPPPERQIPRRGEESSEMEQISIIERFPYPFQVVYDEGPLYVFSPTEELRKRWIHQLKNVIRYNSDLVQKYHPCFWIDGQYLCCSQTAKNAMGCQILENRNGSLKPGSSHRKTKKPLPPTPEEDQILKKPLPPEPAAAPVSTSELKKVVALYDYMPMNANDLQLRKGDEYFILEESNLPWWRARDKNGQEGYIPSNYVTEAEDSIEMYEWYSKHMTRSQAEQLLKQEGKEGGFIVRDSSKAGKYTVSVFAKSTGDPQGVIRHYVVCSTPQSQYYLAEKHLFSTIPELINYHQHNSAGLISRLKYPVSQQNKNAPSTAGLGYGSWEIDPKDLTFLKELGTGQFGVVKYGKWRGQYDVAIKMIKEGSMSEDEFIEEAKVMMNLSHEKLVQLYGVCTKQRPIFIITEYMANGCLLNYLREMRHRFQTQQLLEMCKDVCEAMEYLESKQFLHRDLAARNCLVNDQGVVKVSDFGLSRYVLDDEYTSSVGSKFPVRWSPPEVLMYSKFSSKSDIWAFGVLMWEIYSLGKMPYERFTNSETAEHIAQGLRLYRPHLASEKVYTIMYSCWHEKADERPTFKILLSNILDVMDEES

[4] = target: T3, Ikaros (Homo sapiens, UniProt Q13422+Q96SW2); experiment: Ikaros degradation in patient PBMCs, Western blot (Jess Simple Western); format: in vivo; conditions: Cycle 1 Day 8
T3 construct: from tissue; host or cells: patient PBMCs, lysed after in vivo dosing
T3 sequence (Q13422 whole entry): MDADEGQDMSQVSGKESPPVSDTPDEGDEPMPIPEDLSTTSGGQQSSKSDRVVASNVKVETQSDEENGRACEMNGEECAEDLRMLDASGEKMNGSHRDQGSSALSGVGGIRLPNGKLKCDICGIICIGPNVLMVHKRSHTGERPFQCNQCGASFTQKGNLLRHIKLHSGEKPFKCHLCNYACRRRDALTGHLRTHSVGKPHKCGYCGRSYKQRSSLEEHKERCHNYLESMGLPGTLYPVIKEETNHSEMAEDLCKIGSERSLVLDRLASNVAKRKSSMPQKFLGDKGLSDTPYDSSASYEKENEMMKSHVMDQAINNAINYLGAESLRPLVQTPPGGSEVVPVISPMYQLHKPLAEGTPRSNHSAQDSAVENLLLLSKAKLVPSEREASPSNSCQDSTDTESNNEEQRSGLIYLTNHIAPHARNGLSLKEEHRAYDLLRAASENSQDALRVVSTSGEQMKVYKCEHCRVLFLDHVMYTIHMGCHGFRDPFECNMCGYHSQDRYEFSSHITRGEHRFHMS
T3 sequence (Q96SW2 whole entry): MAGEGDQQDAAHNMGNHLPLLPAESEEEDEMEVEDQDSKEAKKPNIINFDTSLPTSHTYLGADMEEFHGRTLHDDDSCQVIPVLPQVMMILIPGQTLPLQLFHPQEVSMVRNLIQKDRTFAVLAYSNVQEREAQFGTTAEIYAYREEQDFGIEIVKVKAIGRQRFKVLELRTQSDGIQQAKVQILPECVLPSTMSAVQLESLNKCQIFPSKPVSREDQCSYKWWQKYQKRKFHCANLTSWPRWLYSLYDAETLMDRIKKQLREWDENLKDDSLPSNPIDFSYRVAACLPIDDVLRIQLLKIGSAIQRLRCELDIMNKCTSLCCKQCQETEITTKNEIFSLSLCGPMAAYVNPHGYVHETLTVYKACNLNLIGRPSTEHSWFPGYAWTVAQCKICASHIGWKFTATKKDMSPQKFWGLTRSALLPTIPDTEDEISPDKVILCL
T3 sequence (Q16531 whole entry partner): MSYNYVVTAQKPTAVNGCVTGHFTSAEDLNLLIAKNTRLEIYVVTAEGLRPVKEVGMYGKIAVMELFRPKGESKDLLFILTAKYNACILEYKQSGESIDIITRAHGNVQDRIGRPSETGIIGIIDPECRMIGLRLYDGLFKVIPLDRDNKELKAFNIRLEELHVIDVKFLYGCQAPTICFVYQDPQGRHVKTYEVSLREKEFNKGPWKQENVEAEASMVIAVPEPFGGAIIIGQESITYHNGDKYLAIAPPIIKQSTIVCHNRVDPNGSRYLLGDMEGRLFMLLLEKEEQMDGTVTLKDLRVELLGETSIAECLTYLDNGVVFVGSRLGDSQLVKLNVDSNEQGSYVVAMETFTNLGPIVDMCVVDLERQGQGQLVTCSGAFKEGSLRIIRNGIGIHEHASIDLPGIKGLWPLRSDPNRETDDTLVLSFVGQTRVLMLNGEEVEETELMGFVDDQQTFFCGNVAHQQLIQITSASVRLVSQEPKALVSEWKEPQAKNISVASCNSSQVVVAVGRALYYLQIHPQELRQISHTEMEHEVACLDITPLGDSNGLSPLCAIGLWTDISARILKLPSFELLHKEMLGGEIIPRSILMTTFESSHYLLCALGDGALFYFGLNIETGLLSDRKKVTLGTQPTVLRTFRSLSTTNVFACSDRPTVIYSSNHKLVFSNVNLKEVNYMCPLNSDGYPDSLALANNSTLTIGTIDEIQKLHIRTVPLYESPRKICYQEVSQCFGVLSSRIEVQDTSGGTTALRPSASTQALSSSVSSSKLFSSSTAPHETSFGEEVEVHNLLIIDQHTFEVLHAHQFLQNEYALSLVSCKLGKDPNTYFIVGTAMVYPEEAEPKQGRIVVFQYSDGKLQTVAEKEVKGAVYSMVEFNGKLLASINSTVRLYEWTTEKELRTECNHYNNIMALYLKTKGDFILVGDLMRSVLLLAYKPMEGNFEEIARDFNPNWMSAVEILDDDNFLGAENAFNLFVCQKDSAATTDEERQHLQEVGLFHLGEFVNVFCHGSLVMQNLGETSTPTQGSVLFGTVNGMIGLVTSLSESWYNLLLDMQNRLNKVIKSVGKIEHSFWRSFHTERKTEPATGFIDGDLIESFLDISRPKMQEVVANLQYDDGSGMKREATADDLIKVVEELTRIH
Method: Frozen patient PBMCs collected at baseline and at Cycle 1 Day 8 were processed into protein lysate and degradation of cereblon neo-substrate Ikaros was determined using Western blot via Jess™ Simple Western automated system. […] Patients receiving 300 mg Compound 5, 75.2-95.7% Ikaros degradation was detected.
Frozen PBMCs from patients were prepared and Ikaros protein levels were assessed using Western blot via Jess™ Simple Western automated system.
FIG. 7A, densitometric analysis of Ikaros degradation in all patients were obtained after normalization to β-actin and % Ikaros degradation was calculated relative to Baseline values from each patient.
For Ikaros degradation assessment, patient PBMCs were lysed in lysis buffer RIPA buffer (Fisher, PI89901), complete Mini EDTA-free protease inhibitor (Sigma 11836170001), Protease Inhibitor Cocktail (Sigma, P2714) and Phosphatase Inhibitor Cocktail 2 and 3 (Sigma, P5726 and P0044) and stored overnight at −80° C. Cells were then thawed and centrifuged for 5 min at 8000×g and lysate supernatants were transferred to a fresh tube. Protein levels were determined by BCA Assay performed according to manufacturer's protocol (EMD Millipore, cat. no. 71285-3). A total of 3 μg protein was loaded and 1:50 dilution of primary anti-Ikaros (Cell Signaling Technology, cat. 14859) and 1:50 anti-β-Actin (Cell Signaling Technology, cat. 8457) was used. […]

T1 sequence (Q9UKT9 whole entry): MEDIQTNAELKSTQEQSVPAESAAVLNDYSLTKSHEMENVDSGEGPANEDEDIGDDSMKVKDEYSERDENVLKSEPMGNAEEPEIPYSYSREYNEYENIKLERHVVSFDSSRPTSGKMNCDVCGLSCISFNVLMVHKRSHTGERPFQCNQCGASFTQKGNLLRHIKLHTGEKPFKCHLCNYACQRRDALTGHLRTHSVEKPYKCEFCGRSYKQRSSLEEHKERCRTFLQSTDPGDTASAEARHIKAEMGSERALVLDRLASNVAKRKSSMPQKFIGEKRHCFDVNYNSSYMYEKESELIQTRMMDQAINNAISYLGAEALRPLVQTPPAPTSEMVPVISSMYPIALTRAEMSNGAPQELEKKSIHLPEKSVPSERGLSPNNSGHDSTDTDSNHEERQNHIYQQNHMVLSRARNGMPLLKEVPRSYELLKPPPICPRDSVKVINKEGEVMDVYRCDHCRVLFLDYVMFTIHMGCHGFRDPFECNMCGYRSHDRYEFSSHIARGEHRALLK
T1 sequence (Q96SW2 whole entry): as the sequence (Q96SW2 whole entry) above
T1 sequence (Q16531 whole entry partner): as the sequence (Q16531 whole entry partner) above

Compound | DC50 [1] [nM] | Dmax [1] [%] | body weight loss [2] | BTK degradation [3] [%] | Ikaros degradation ([4]; patients receiving 300 mg) | Ikaros degradation ([4]; patients receiving either 100 or 200 mg)
CN1CCN([C@@H]2CCCN(c3cnc(C(N)=O)c(Nc4ccc(C5CCN(C[C@H]6CCN(c7ccc8c(c7)C(=O)N(C7CCC(=O)NC7=O)C8=O)C6)CC5)cc4)n3)C2)C1=O (stereo partly drawn) [Compound 13] | 33 | 73.9 | – | – | – | –
CN1CCN([C@H]2CCCN(c3cnc(C(N)=O)c(Nc4ccc5c(c4)CCN(CC4CN(c6ccc7c(c6)C(=O)N(C6CCC(=O)NC6=O)C7=O)C4)C5)n3)C2)C1=O (stereo partly drawn) [Compound 7] | 4 | 98.2 | – | – | – | –
CN1CCN([C@@H]2CCCN(c3cnc(C(N)=O)c(Nc4ccc(C5CCN(CC6CCN(c7ccc8c(c7)C(=O)N(C7CCC(=O)NC7=O)C8=O)CC6)CC5)cc4)n3)C2)C1=O (stereo partly drawn) [Compound 14] | 11 | 74 | – | – | – | –
CN1CCN([C@@H]2CCCN(c3cnc(C(N)=O)c(Nc4ccc(N5CCN(C[C@@H]6[C@H]7CN(c8ccc9c(c8)C(=O)N(C8CCC(=O)NC8=O)C9=O)C[C@@H]67)CC5)cc4)n3)C2)C1=O (stereo partly drawn) [Compound 12] | 7 | 65.1 | – | – | – | –
NC(=O)c1ncc(N2CCCCC2)nc1Nc1ccc(C2CCN(C[C@@H]3CCN(c4ccc5c(c4)C(=O)N(C4CCC(=O)NC4=O)C5=O)C3)CC2)cc1 (stereo partly drawn) [Compound 5] | 22 | 89.1 | minimal body weight loss | ≥ 80 | 75.2-95.7% | 26.1-60.5%
CN1CCN([C@@H]2CCCN(c3cnc(C(N)=O)c(Nc4ccc(N5CCN(CCCCc6cccc7c6CN(C6CCC(=O)NC6=O)C7=O)CC5)cc4)n3)C2)C1=O (stereo partly drawn) [Compound 18] | 9 | 81.6 | – | – | – | –
CN1CCN([C@@H]2CCCN(c3cnc(C(N)=O)c(Nc4ccc5c(c4)CCN(C4CN(c6ccc7c(c6)C(=O)N(C6CCC(=O)NC6=O)C7=O)C4)C5)n3)C2)C1=O (stereo partly drawn) [Compound 8] | 1 | 98.4 | – | – | – | –
CN1CCN([C@@H]2CCCN(c3cnc(C(N)=O)c(Nc4ccc(C5CCN(C[C@H]6CC[C@H](Nc7cccc8c7C(=O)N(C7CCC(=O)NC7=O)C8=O)CC6)CC5)cc4)n3)C2)C1=O (stereo partly drawn) [Compound 3] | 93 | 84.9 | – | – | – | –
CN1CCN([C@@H]2CCCN(c3cnc(C(N)=O)c(Nc4ccc(C5CCN(C(=O)CCOCCNc6cccc7c6C(=O)N(C6CCC(=O)NC6=O)C7=O)CC5)cc4)n3)C2)C1=O (stereo partly drawn) [Compound 19] | 1 | 98.6 | – | – | – | –
CN1CCN([C@@H]2CCCN(c3cnc(C(N)=O)c(Nc4ccc(OCCCNc5ccc6c(c5)C(=O)N(C5CCC(=O)NC5=O)C6=O)cc4)n3)C2)C1=O (stereo partly drawn) [Compound 16] | 24 | 95.7 | – | – | – | –
CN1CCN([C@@H]2CCCN(c3cnc(C(N)=O)c(Nc4ccc5c(c4)CCN(CC4CCN(c6ccc7c(c6)C(=O)N(C6CCC(=O)NC6=O)C7=O)CC4)C5)n3)C2)C1=O (stereo partly drawn) [Compound 9] | 12 | 86.5 | – | – | – | –
CN1CCN([C@@H]2CCCN(c3cnc(C(N)=O)c(Nc4ccc(C5(C)CCN(C(=O)CCOCCC(=O)Nc6cccc7c6CN(C6CCC(=O)NC6=O)C7=O)CC5)cc4)n3)C2)C1=O (stereo partly drawn) [Compound 17] | 560 | 51.9 | – | – | – | –
CN1CCN([C@@H]2CCCN(c3cnc(C(N)=O)c(Nc4ccc(C5CN(C6CCN(c7ccc8c(c7)C(=O)N(C7CCC(=O)NC7=O)C8=O)CC6)C5)cc4)n3)C2)C1=O (stereo partly drawn) [Compound 11] | 20 | 78.7 | – | – | – | –
CN1CCN([C@@H]2CCCN(c3cnc(C(N)=O)c(Nc4ccc(C5CCN(CCCNc6cccc7c6C(=O)N(C6CCC(=O)NC6=O)C7=O)CC5)cc4)n3)C2)C1=O (stereo partly drawn) [Compound 4] | 8 | 87 | – | – | – | –
CN1CCN([C@H]2CCCN(c3cnc(C(N)=O)c(Nc4cnn(C5CCN(CC6CN(c7ccc8c(c7)C(=O)N(C7CCC(=O)NC7=O)C8=O)C6)CC5)c4)n3)C2)C1=O (stereo partly drawn) [Compound 6] | 23 | 70.8 | – | – | – | –
CN1CCN([C@@H]2CCCN(c3cnc(C(N)=O)c(Nc4ccc(C5CCN(C6CN(c7ccc8c(c7)C(=O)N(C7CCC(=O)NC7=O)C8=O)C6)CC5)cc4)n3)C2)C1=O (stereo partly drawn) [Compound 15] | 17 | 74.7 | – | – | – | –
NC(=O)c1ncc(N2CCCCC2)nc1Nc1ccc2c(c1)CCN(C[C@H]1CCN(c3ccc4c(c3)C(=O)N(C3CCC(=O)NC3=O)C4=O)C1)C2 (stereo partly drawn) [Compound 1] | 27 | 77.4 | – | – | – | –
NC(=O)c1ncc(N2CCCCC2)nc1Nc1ccc2c(c1)CCN(C1CN(c3ccc4c(c3)C(=O)N(C3CCC(=O)NC3=O)C4=O)C1)C2 (racemic) [Compound 2, rac-3-{[2-(1-{2-[(3R)-2,6-dioxopiperidin-3-yl]-1,3-dioxoisoindol-5-yl}azetidin-3-yl)-3,4-dihydro-1H-isoquinolin-6-yl]amino}-5-(piperidin-1-yl)pyrazine-2-carboxamide] | 5.2 | 94.7 | – | – | – | –
CN1CCN([C@@H]2CCCN(c3cnc(C(N)=O)c(Nc4ccc(N5CC6(C5)CN(c5ccc7c(c5)C(=O)N(C5CCC(=O)NC5=O)C7=O)C6)cc4)n3)C2)C1=O (stereo partly drawn) [Compound 10] | 9 | 83.1 | – | – | – | –
